Data reported in patent US20150313228A1, “SYNERGISTIC HERBICIDAL COMBINATIONS AND METHODS OF USE” (priority 2012, published 2015).

Test system: soybean varieties
Assay: Metribuzin sensitivity or tolerance phenotype of soybean varieties (Table S-3)
Type: in vivo, Glycine max
Source text: To observe the presence or absence of the “metribuzin sensitivity” or metribuzin tolerance phenotypes, soybean plants are typically exposed in early to mid-vegetative growth stages to one or more doses of metribuzin. Typical doses of metribuzin that can elicit a metribuzin sensitivity phenotype can range from about a 1-fold label application rate of a commercially available metribuzin formulation (i.e. about 0.25 pounds per acre) to about a 3-fold label application rate (i.e. about 0.75 pounds per acre) of a commercially available metribuzin formulation. Commercially available formulations containing metribuzin that can be used include, but are not limited to, Authority®MTZ (FMC Corporation, Philadelphia, Pa., USA); Boundary (Syngenta, Wilmington, Del., USA); Canopy® or Lexone® (Dupont, Wilmington, Del., USA); Sencor® (Bayer Crop Science, Research Triangle Park, N.C., USA); or TriCor® DF (United Phosphorus, Inc., King of Prussia, Pa., USA. In certain embodiments, the commercially available metribuzin formulation used is TriCor® 75DF. In certain embodiments, doses of metribuzin that can elicit a metribuzin sensitivity phenotype can range from about a 1 fold application rate of about 0.25 pounds per acre to about a three fold application rate of 0.75 pounds per acre.
The metribuzin sensitivity phenotype can be observed approximately one week to three weeks after herbicide application in certain soybean varieties that are sensitive to metribuzin. Metribuzin is typically applied during pre and post-emergent vegetative growth stages. In certain embodiments of these methods, metribuzin can be applied to the soil about 2 days prior to soybean seed planting and activated by irrigation of the planted seed to score for the presence of the metribuzin sensitivity phenotype. Genotypes provided herein are especially useful for providing metribuzin tolerance to plants exposed to metribuzin by a pre-emergence soil drench. As discussed herein, the vegetative stages of soybean are as follows: VE (emergence), VC (cotyledon stage), V1 (first trifoliate leaf), V2 (second trifoliate leaf), V3 (third trifoliate leaf), V(n) (nth trifoliate leaf), and V6 (flowering will soon start). As discussed herein, the reproductive stages of soybean are as follows: R1 (beginning bloom), R2 (full bloom), R3 (beginning pod), R4 (full pod), R5 (beginning seed), R6 (full seed), R7 (beginning maturity) and R8 (full maturity). A description of the soybean vegetative and reproductive stages can be found on the World Wide Web (internet) at ag.ndsu.edu/pubs/plantsci/rowcrops/a1174/a1174w.htm (North Dakota State University publication A-1174, June 1999, Reviewed and Reprinted August 2004).
A rating scale that evaluates the degree of metribuzin sensitivity can also be employed to identify “metribuzin sensitive” and “metribuzin tolerant” plants. An exemplary and non-limiting scale for evaluating the Metribuzin sensitivity phenotype is as follows, where a low number corresponds to a “metribuzin tolerance” phenotype and the a high number correlates to a “metribuzin sensitivity” phenotype:
A non-limiting and exemplary list of soybean plants that comprise genomic regions associated with either a metribuzin sensitivity or a metribuzin tolerance phenotype are provided herewith in Table S-3.

CSc1nnc(C(C)(C)C)c(=O)n1N [Metribuzin, 4-amino-6-(1,1-dimethylethyl)-3-(methylthio)-1,2,4-triazin-5(4H)-one] was tested, and the “METRIBUZIN PHENOTYPE” value (soybean variety AG4531) was “Tolerant”, the “METRIBUZIN PHENOTYPE” value (soybean variety AG4730) was “Tolerant” and the “METRIBUZIN PHENOTYPE” value (soybean variety AG6130) was “Sensitive”. For the same compound, the “METRIBUZIN PHENOTYPE” value (soybean variety AG6730) was “Sensitive”, the “METRIBUZIN PHENOTYPE” value (soybean variety AG6931) was “Tolerant” and the “METRIBUZIN PHENOTYPE” value (soybean variety BURLISON (from TRACY)) was “Sensitive”. The “METRIBUZIN PHENOTYPE” value (soybean variety DASSEL (from PAGODA)) was “Sensitive”, the “METRIBUZIN PHENOTYPE” value (soybean variety H7550) was “Sensitive” and the “METRIBUZIN PHENOTYPE” value (soybean variety PAGODA) was “Sensitive”. For the same compound, the “METRIBUZIN PHENOTYPE” value (soybean variety TRACY) was “Sensitive” and the “METRIBUZIN PHENOTYPE” value (soybean variety Tracy-M) was “Tolerant”.
